Laboratory results reported in patent publication US20260184675A1, “CHIRAL ISOMERIC SULFITE COMPOUND AND APPLICATION THEREOF” (Chengdu Hanova BioSciences Co., Ltd, priority 2024, published 2026).

Key:
eggs of Thrips = assay: Effect on hatching of eggs of Thrips, leaf disc method; type: in vivo; settings: 100 ppm; for Hatching rate (%): 5 days after insecticide delivery
In short: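 Egg-bearing Vicia faba leaf discs (diameter 2.0 cm, wetted filter paper beneath) were counted microscopically for baseline eggs. They were then soaked for 10 seconds in water or in test agent at 100 ppm. After moist incubation in lidded dishes, with controlled temperature and humidity and adequate indirect light, hatched larvae were counted five days post-delivery to judge hatching inhibition.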

[1] = system: eggs of Tetranychus urticae; assay: Effect on hatching of eggs of Tetranychus urticae, leaf disc method; type: in vivo; settings: 5 ppm; for Hatching rate (%): 5 days after insecticide delivery
In short: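 This leaf disc test measured inhibition of Tetranychus urticae egg hatching. Eggs laid on Vicia faba discs were counted microscopically, and the discs were soaked for 10 seconds in compound at 5 ppm, with clear water as control. They were incubated under controlled temperature and humidity with strong indirect light, avoiding condensate. Hatched eggs, leaf damage and developmental abnormalities were recorded five days after delivery.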

eggs of Panonychus citri = assay: Effect on hatching of eggs of Panonychus citri, leaf disc method; type: in vivo; settings: 1 ppm; for Hatching rate (%), Replicate 1 / Hatching rate (%), Replicate 2 / Hatching rate (%), Replicate 3 / Number of hatched larvae 5 days after insecticide delivery, Replicate 1 / Number of hatched larvae 5 days after insecticide delivery, Replicate 2 / Number of hatched larvae 5 days after insecticide delivery, Replicate 3: Panonychus citri eggs; for Hatching rate (%), Replicate 1 / Hatching rate (%), Replicate 2 / Hatching rate (%), Replicate 3: 5 days after delivery; for Number of hatched larvae 5 days after insecticide delivery, Replicate 1 / Number of hatched larvae 5 days after insecticide delivery, Replicate 2 / Number of hatched larvae 5 days after insecticide delivery, Replicate 3: leaf disc
[2] = system: eggs of Spodoptera litura; assay: Effect on hatching of eggs of Spodoptera litura, egg piece soaking; type: in vivo; settings: Spodoptera litura eggs, 500 ppm; for Hatching rate (%), Replicate 1 / Hatching rate (%), Replicate 2 / Hatching rate (%), Replicate 3: 4 days after delivery; for Number of unhatched larvae 4 days after insecticide delivery, Replicate 1 / Number of unhatched larvae 4 days after insecticide delivery, Replicate 2 / Number of unhatched larvae 4 days after insecticide delivery, Replicate 3: soaked 10 minutes
In short: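 Egg pieces of about 60 eggs were soaked 10 min in test agent at 500 ppm, blotted, then held singly at 24±1 °C, 80±10% RH, 12:12 L:D. Hatched and unhatched eggs were counted on day 4 to give hatching rate and control effect; 3 replicates.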

Magnaporthe grisea = type: cell-based; settings: 100 ppm; for Average antifungal rate (%) / Antifungal rate of Magnaporthe grisea (%), Replicate 1 / Antifungal rate of Magnaporthe grisea (%), Replicate 2 / Antifungal rate of Magnaporthe grisea (%), Replicate 3: 96-well plate; for Average antifungal rate (%): average of 3 replicates

CC(COc1ccc(Cl)cc1Cl)OS(=O)OCCF (stereo not drawn) [Compound 1′] was tested, and the “inhibitory activity on the hatching of eggs of Thrips (in words)” value (eggs of Thrips) was “strong inhibitory activities”, the “Hatching rate (%)” value (eggs of Thrips; Replicate 1) was 0.00% and the “Hatching rate (%)” value (eggs of Thrips; Replicate 2) was 0.00%. The “Hatching rate (%)” value (eggs of Thrips; Replicate 3) was 0.97%, the “Number of hatched larvae 5 days after insecticide delivery” value (eggs of Thrips; Replicate 1) was 0 and the “Number of hatched larvae 5 days after insecticide delivery” value (eggs of Thrips; Replicate 2) was 0. For the same molecule, the “Number of hatched larvae 5 days after insecticide delivery” value (eggs of Thrips; Replicate 3) was 1, the “inhibitory activity on the hatching of eggs of Tetranychus urticae (in words)” value [1] was “strong inhibitory activities” and the “Hatching rate (%)” value ([1]; Replicate 1) was 0.00%. For the same molecule, the “Hatching rate (%)” value ([1]; Replicate 2) was 1.98%, the “Number of hatched larvae 5 days after insecticide delivery” value ([1]; Replicate 1) was 0 and the “Number of hatched larvae 5 days after insecticide delivery” value ([1]; Replicate 2) was 2. For the same molecule, the “inhibitory effect on the hatching of eggs of Panonychus citri (in words)” value (eggs of Panonychus citri) was “good inhibitory effects”, the “Hatching rate (%), Replicate 1” value (eggs of Panonychus citri) was 0.93% and the “Hatching rate (%), Replicate 2” value (eggs of Panonychus citri) was 0.00%. The “Hatching rate (%), Replicate 3” value (eggs of Panonychus citri) was 0.00%, the “Number of hatched larvae 5 days after insecticide delivery, Replicate 1” value (eggs of Panonychus citri) was 1 and the “Number of hatched larvae 5 days after insecticide delivery, Replicate 2” value (eggs of Panonychus citri) was 0. For the same molecule, the “Number of hatched larvae 5 days after insecticide delivery, Replicate 3” value (eggs of Panonychus citri) was 0, the “Hatching rate (%), Replicate 1” value [2] was 40.68% and the “Hatching rate (%), Replicate 2” value [2] was 40.32%. For the same molecule, the “Hatching rate (%), Replicate 3” value [2] was 39.06%, the “Number of unhatched larvae 4 days after insecticide delivery, Replicate 1” value [2] was 35 and the “Number of unhatched larvae 4 days after insecticide delivery, Replicate 2” value [2] was 37. For the same molecule, the “Number of unhatched larvae 4 days after insecticide delivery, Replicate 3” value [2] was 39, the “inhibitory rate against Magnaporthe grisea (in words)” value (Magnaporthe grisea) was “strong inhibitory rate” and the “Average antifungal rate (%)” value (Magnaporthe grisea) was 94.28%. The “Antifungal rate of Magnaporthe grisea (%), Replicate 1” value (Magnaporthe grisea) was 95.78%, the “Antifungal rate of Magnaporthe grisea (%), Replicate 2” value (Magnaporthe grisea) was 98.76% and the “Antifungal rate of Magnaporthe grisea (%), Replicate 3” value (Magnaporthe grisea) was 88.30%.
With CC(C)(COc1ccc(Cl)cc1Cl)OS(=O)OCCF (stereo not drawn) [Compound 10] the “inhibitory activity on the hatching of eggs of Thrips (in words)” value (eggs of Thrips) was “strong inhibitory activities”, the “Hatching rate (%)” value (eggs of Thrips; Replicate 1) was 0.99% and the “Hatching rate (%)” value (eggs of Thrips; Replicate 2) was 0.00%. The “Hatching rate (%)” value (eggs of Thrips; Replicate 3) was 0.00%, the “Number of hatched larvae 5 days after insecticide delivery” value (eggs of Thrips; Replicate 1) was 1 and the “Number of hatched larvae 5 days after insecticide delivery” value (eggs of Thrips; Replicate 2) was 0. The “Number of hatched larvae 5 days after insecticide delivery” value (eggs of Thrips; Replicate 3) was 0, the “inhibitory activity on the hatching of eggs of Tetranychus urticae (in words)” value [1] was “strong inhibitory activities” and the “Hatching rate (%)” value ([1]; Replicate 1) was 1.94%. For the same molecule, the “Hatching rate (%)” value ([1]; Replicate 2) was 1.35%, the “Number of hatched larvae 5 days after insecticide delivery” value ([1]; Replicate 1) was 2 and the “Number of hatched larvae 5 days after insecticide delivery” value ([1]; Replicate 2) was 1. The “inhibitory effect on the hatching of eggs of Panonychus citri (in words)” value (eggs of Panonychus citri) was “good inhibitory effects”, the “Hatching rate (%), Replicate 1” value (eggs of Panonychus citri) was 1.01% and the “Hatching rate (%), Replicate 2” value (eggs of Panonychus citri) was 0.00%. For the same molecule, the “Hatching rate (%), Replicate 3” value (eggs of Panonychus citri) was 0.00%, the “Number of hatched larvae 5 days after insecticide delivery, Replicate 1” value (eggs of Panonychus citri) was 1 and the “Number of hatched larvae 5 days after insecticide delivery, Replicate 2” value (eggs of Panonychus citri) was 0. The “Number of hatched larvae 5 days after insecticide delivery, Replicate 3” value (eggs of Panonychus citri) was 0, the “Hatching rate (%), Replicate 1” value [2] was 41.27% and the “Hatching rate (%), Replicate 2” value [2] was 40.98%. The “Hatching rate (%), Replicate 3” value [2] was 42.11%, the “Number of unhatched larvae 4 days after insecticide delivery, Replicate 1” value [2] was 37 and the “Number of unhatched larvae 4 days after insecticide delivery, Replicate 2” value [2] was 36. The “Number of unhatched larvae 4 days after insecticide delivery, Replicate 3” value [2] was 33, the “inhibitory rate against Magnaporthe grisea (in words)” value (Magnaporthe grisea) was “strong inhibitory rate” and the “Average antifungal rate (%)” value (Magnaporthe grisea) was 94.26%. The “Antifungal rate of Magnaporthe grisea (%), Replicate 1” value (Magnaporthe grisea) was 93.89%, the “Antifungal rate of Magnaporthe grisea (%), Replicate 2” value (Magnaporthe grisea) was 94.52% and the “Antifungal rate of Magnaporthe grisea (%), Replicate 3” value (Magnaporthe grisea) was 94.36%.
